This is an account of results in patent US20030091557A1, “Methods and compositions for modulating ACE-2 activity” (priority 2001, published 2003).

Assay [1] concerns the target T1, ACE-2 (Homo sapiens, UniProt Q9BYF1). The settings on record: cited from earlier work.
Target sequence in this assay (Q9BYF1 18-805): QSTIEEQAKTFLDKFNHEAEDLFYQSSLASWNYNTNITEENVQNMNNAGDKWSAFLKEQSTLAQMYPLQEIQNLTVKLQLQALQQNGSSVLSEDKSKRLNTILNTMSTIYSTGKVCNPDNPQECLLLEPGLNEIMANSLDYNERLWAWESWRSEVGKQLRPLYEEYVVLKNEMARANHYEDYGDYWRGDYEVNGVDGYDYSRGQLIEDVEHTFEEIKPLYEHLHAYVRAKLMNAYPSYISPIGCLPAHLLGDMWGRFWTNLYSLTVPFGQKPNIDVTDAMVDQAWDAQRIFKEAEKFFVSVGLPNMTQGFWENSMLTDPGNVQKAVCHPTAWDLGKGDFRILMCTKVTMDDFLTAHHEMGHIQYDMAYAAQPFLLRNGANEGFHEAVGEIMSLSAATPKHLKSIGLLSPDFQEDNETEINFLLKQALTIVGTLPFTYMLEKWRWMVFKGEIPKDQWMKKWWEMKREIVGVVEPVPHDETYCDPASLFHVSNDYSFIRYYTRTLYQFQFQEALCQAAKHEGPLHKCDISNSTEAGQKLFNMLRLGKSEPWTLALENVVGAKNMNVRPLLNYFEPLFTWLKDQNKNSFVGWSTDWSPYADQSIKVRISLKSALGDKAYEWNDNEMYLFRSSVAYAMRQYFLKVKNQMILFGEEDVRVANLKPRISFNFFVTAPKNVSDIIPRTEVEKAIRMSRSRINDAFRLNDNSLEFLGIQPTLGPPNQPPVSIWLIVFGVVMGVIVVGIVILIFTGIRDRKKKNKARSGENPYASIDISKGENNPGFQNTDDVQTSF
Assay [2] concerns isolated aortic vascular rings. Description: Developed isometric tension of isolated aortic vascular rings. Further details: species or system rat. The source says: FIG. 1. Synergistic effects of Angiotensin 1-9 (A1-9) on angiotensin II (AII)-induced vasoconstriction, representative experiment (experiment 9 from Table 3). Data are presented as the mean percentage of the maximal contractile response as defined by full KCl depolarization following treatment with angiotensin peptides for four separate rings used to determine average response at each concentration. Generated tension was plotted against peptide concentration and the resulting concentration-response curves were subjected to regression analysis to determine whether the effects of the combination of A1-9 and angiotensin II produced additivity or synergy.
The effects of graded doses of A1-9 (Fields et al., Peptide Research 4: 95-101 (1991)) or A1-10 (substrate control) alone or in combination (Tallarida, Drug Synergism and Dose-Effect Data Analysis, Chapman and Hall/CRC, New York (2000), Tallarida et al., Life Science 61: PL417-425 (1997)) with angiotensin II were examined on isolated aortic vascular rings developed tension in response to vasoactive substances. Aortas were removed from mature male Sprague-Dawley rats, cleared of connective tissue, and cut into 1 mm rings. Rings were mounted to an isometric force transducer and placed in Krebs-Henseleit solution bubbled with 95% O2/5% CO2 at 37° C. Rings were exposed to a 2 g preload, relaxed and then exposed to various concentrations of angiotensin peptides alone or in combination. Following angiotensin peptide dosing, rings were fully constricted with KCl to determine the maximum degree of vasoconstriction.

Assay [3] concerns awake, free-ranging Sprague-Dawley rats. Description: Arterial pressure in awake, free-ranging Sprague-Dawley rats, intravenous infusion. The assay is classed as in vivo. The following applies: awake rat. Here is the method: FIG. 2. The effect of A1-9 on (A) mean arterial pressure ±SEM in the awake and freely-ranging rat (n=6 rats). Average mean arterial and pulse pressure as well as heart rate data were derived from the last 5 min of a 20 min continuous intravenous infusion period. * indicates a significant difference compared to vehicle-treated rats following analysis of variance and Dunnett's post-hoc test. A1-9 or angiotensin II (AII) continuous infusion doses are in μg/kg/min.
FIG. 3. The effect of A1-9 on angiotensin II-mediated pressor responses in normotensive awake male rats. Data are reported as average mean arterial pressure ±SEM (n=6 rats).
To investigate the effects of A1-9 on arterial pressure, A1-9 was administered to awake, free-ranging Sprague-Dawley rats via indwelling intravenous and arterial catheters. Intravenous infusion of A1-9 (1-3 μg/kg/min) in the awake rat produced a dose-dependent tonic increase in mean arterial pressure to a maximum of approximately 30 mmHg (FIG. 2). […] These responses seen with A1-9 were similar in magnitude to those induced by angiotensin II.
To examine any interactions induced by coadministration of A1-9 and angiotensin II, arterial pressure was monitored in the awake rat after they received either A1-9 (1 μg/kg/min) or saline coinfused with angiotensin II (1-100 ng/kg/min).

The target in assay [4] is T1, ACE-2. Briefly: Fluorometric ACE-2 inhibition assay with peptide M-2195 as substrate. The assay is classed as biochemical. Further details: nucleotides corresponding to the extracellular domain (M1-S740); FLAG; made in house; host or cells: Sf9 insect cells, recombinant baculovirus (transfer vector pA2); enzyme purified from conditioned media. The following applies: inhibition of ACE-2 activity, M-2195 substrate; class by % inhibition at ~100 μM and IC50. Here is the method: Substrate stock (10 μL of 10× concentration) was added to each well to be tested in blocks of three vertically down the plate. The reaction was monitored on a Spectrafluor Plus (Tecan) at an excitation wavelength of 340 nm and an emission wavelength of 400 nm (+/−35 nm) every 30 seconds for a time period of 10 minutes.
ACE-2 cleaves off the C-terminal lysine from the peptide with a concomitant increase in fluorescence signal.
The assays were performed in 96-well clear-bottom black plates (Costar, 07-200-590). In each well, 0.45 μg (5 pmoles) of ACE-2 is added to 90 μL of an assay solution containing 100 mM TRIS at pH 7.4, 0.1% Tween, and 0.4% DMSO. Substrate stock at 10 μL of 10× concentration is added to each well (for example, 10 μL of 1 mM stock for a final 100 μM concentration). The reaction was monitored on a Spectrafluor Plus (Tecan) at an excitation wavelength of 340 nm and an emission wavelength of 400 nm (+/−35 nm) every 30 seconds up to 10 minutes. All samples were measured in triplicate. […]
Target sequence in this assay (Q9BYF1 18-740): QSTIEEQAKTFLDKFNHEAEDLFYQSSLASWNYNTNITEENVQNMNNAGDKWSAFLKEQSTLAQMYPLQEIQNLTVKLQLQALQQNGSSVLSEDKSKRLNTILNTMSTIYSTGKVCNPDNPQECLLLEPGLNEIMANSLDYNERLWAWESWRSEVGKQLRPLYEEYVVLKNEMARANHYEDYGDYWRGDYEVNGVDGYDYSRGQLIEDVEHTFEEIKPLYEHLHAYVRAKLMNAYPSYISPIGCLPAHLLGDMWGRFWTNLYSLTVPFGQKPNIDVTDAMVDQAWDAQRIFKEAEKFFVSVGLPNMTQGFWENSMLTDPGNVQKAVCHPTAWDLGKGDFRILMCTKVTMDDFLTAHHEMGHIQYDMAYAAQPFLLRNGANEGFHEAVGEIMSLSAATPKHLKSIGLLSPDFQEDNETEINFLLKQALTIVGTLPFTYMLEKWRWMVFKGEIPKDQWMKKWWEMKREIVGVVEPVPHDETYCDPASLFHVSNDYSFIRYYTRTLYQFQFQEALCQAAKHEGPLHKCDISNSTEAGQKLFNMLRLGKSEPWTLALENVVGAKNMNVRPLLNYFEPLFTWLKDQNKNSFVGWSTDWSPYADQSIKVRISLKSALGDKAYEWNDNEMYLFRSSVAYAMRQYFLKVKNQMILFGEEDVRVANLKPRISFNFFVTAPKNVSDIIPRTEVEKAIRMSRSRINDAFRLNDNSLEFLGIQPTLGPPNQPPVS

Entries after “also recorded” stand apart in the source; their conditions may differ. Where a SMILES comes first, the peptide text is derived from it. Bridges are numbered along the chain shown (N, C = ends).

For the compound `C[C@H](CS)C(=O)N1CCC[C@H]1C(=O)O` [captopril], the “blockade of ACE-2 formation of A1-9 from angiotensin I” value on ACE-2 [1] is “not blocked”.
Regarding “angiotensin 1-9 (DRVYIHPFH; Angiotensin 1-9; UniProt P01019 25-33, looked up) [A1-9, nonapeptide formed by removal of the C-terminal leucine from angiotensin I]”, in assay [2] (combined with angiotensin II, rat aortic rings), the “potentiation of angiotensin II-mediated vasoconstriction” value is “superadditive or synergistic interaction”. Moreover, the “maximum tension developed / effect on vascular tone, peptide alone” value in assay [2] (rat aortic rings) was “no effect on vascular tone; also recorded: minimal”. Also, the “factor by which relative potency of angiotensin II was increased beyond simple addition” value in assay [2] (shift of angiotensin II dose-effect curve by A1-9, rat aortic rings, FIG. 1) is 11.6 (95% confidence limits of 3.02-44.7). Moreover, the “effect on pressor response elicited by angiotensin II” value in assay [3] (coinfused with angiotensin II (1-100 ng/kg/min), A1-9 at 1 μg/kg/min) is “potentiated the pressor response elicted by angiotensin II in an additive fashion”. Also, the “increase in mean arterial pressure, maximum” value in assay [3] (intravenous infusion 1-3 μg/kg/min) is “approximately 30 mmHg”.
On to `CSCC[C@@H]1NC(=O)[C@H](CCSC)NC(=O)[C@@H]2CCCN2C(=O)[C@H](C)NC(=O)[C@H](Cc2c[nH]c3ccccc23)NC(=O)[C@H](Cc2c[nH]cn2)NC(=O)[C@@H](NC(=O)[C@@H](NC(=O)[C@H](CCC(=O)O)NC(=O)[C@H](Cc2c[nH]c3ccccc23)NC(=O)CNC(=O)[C@H](C)NC(C)=O)C(C)C)CSSC[C@@H](C(=O)N[C@@H](CCCCN)C(=O)N[C@@H](Cc2c[nH]cn2)C(=O)NCC(=O)NCC(=O)N[C@H](C(=O)N[C@@H](CCC(=O)O)C(=O)NCC(=O)NCC(=O)NCC(N)=O)[C@@H](C)O)NC1=O` [DX-529] (Ac-AGWEVCHWAPMMCKHGGTEGGG-NH2; disulfide 6-13), for which, at ACE-2 [4], the Inhibition result is “+++ (signifies strong inhibition (˜99% inhibition at ˜100 μM; with IC50 between 0.4-1 μM))”.
Take `CC(=O)N[C@@H](C)C(=O)NCC(=O)N[C@@H](CO)C(=O)N[C@@H](CC(=O)O)C(=O)N[C@@H](Cc1c[nH]c2ccccc12)C(=O)N[C@H]1CSSC[C@@H](C(=O)N[C@@H](Cc2ccccc2)C(=O)N[C@@H](Cc2c[nH]cn2)C(=O)N[C@@H](CCC(N)=O)C(=O)NCC(=O)N[C@H](C(=O)N[C@@H](CCC(=O)O)C(=O)NCC(=O)NCC(=O)NCC(N)=O)[C@@H](C)O)NC(=O)[C@@H]2CCCN2C(=O)[C@H](CC(N)=O)NC(=O)[C@H](CC(N)=O)NC(=O)[C@H](Cc2c[nH]c3ccccc23)NC(=O)[C@H]([C@@H](C)O)NC(=O)CNC1=O` [DX-531] (Ac-AGSDWCGTWNNPCFHQGTEGGG-NH2; disulfide 6-13): the Inhibition entry on ACE-2 [4] was “+++ (signifies strong inhibition (˜99% inhibition at ˜100 μM; with IC50 between 0.4-1 μM))”.
